Reference: publication PMC6463794, “Inhibition of CDC25B With WG-391D Impedes the Tumorigenesis of Ovarian Cancer” (Frontiers in Oncology, 2019)

Target: T1, CDC25B (Homo sapiens, UniProt P30305)
T1 construct: recombinant CDC25B protein
T1 sequence (P30305 1-580): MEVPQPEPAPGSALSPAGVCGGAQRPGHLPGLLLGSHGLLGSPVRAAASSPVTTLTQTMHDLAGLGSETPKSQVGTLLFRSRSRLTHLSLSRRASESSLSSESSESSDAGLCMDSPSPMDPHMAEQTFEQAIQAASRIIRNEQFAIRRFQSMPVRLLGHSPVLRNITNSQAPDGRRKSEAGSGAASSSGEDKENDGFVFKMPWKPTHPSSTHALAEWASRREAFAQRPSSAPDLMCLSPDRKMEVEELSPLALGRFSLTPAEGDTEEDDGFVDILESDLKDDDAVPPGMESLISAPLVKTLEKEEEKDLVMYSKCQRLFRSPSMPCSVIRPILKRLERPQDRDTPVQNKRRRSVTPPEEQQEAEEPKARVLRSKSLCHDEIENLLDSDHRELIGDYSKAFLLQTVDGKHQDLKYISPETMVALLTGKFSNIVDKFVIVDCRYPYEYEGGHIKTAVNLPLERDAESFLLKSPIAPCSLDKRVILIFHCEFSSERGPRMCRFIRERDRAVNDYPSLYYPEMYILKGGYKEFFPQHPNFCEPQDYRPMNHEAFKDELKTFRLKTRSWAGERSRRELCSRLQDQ
Assay: fluorometric phosphatase assay (3-O-methylfluorescein phosphate) with recombinant CDC25B; positive-control inhibitor, single concentration
Type: biochemical
Method: fluorometric phosphatase assay (3-O-methylfluorescein phosphate) with recombinant CDC25B; positive-control inhibitor, single concentration on CDC25B | CDC25B dephosphorylation catalytic activity was determined by in vitro enzyme assay. ... PC, NSC663284 served as the positive control.

`O=C1C(Cl)=C(NCCN2CCOCC2)C(=O)c2ncccc21` [PC, NSC663284] was tested, and the “fluorometric phosphatase assay (3-O-methylfluorescein phosphate) with recombinan” value was “CDC25B dephosphorylation catalytic activity was determined by in vitro enzyme assay. ... PC, NSC663284 served as the positive control”.
